Laboratory results taken from patent US10272124B2, “Use of helminthostachys, ugonins or flavone-based compounds for the treatment or prevention of metabolic diseases” (National Research Institute of Chinese Medicine, Ministry …, priority 2016, dated 2019).

These molecules were tested on Akt (assay: Akt kinase activity assay (GSK3-α phosphorylation, Western blotting)). Conditions: not given.
Format: biochemical
Method: Akt kinase activity was determined by commercial Akt assay kit according to the manufacturer's directions. Phosphorylation states of GSK3-α were determined by Western blotting, so as to evaluate the effect of various ugonins on Akt activity.

SMILES | Akt activity
C=C1CCCC(C)(C)[C@H]1Cc1c(O)cc2oc(-c3ccc(O)c(O)c3)cc(=O)c2c1O [ugonin J, (R)-2-(3,4-dihydroxyphenyl)-6-((2,2-dimethyl-6-methylenecyclohexyl)methyl)-5,7-dihydroxy-4H-chromen-4-one] | promote Akt activity

Each molecule was assayed on BRIN-BD11 cells (assay: Glucose stimulated insulin secretion (HTRF insulin assay)). Conditions: below the concentration of 20 μM; 16.7 mM glucose, 20 min.
Format: cell-based, rat
Method: The clonal rat pancreatic β-cell line (BRIN-BD11) was grown as a monolayer in culture dishes at 37° C. under 5% CO2/air with 90% humidity. Cells were maintained in RPMI 1640 medium containing 10% foetal bovine serum and 5% penicillin and streptomycin mixture.
BRIN-BD11 cells were plated on 24-well plates (0.5×10^5 cells/well) and incubated for 48 hours with media containing 5.6 mM glucose. Before performing acute insulin secretion test, cells were pre-incubated with 1.1 mM glucose in Krebs-Ringer Bicarbonate Buffer for 45 min at 37° C. Then, cells were challenged with vehicle (DMSO) or various ugonins in 16.7 mM glucose in Krebs-Ringer Bicarbonate Buffer for 20 min. The media were collected for insulin determination. Insulin concentrations were quantified by the Homogeneous Time-Resolved Fluorescence (HTRF) insulin assay and normalized to a million of total cell numbers.
Data were presented as mean±standard error of the mean. Statistical analyses were performed using GraphPad Prism (GraphPad, CA, USA). Single parameter-based comparisons were obtained from the unpaired student's t-test. P values less than 0.05 and 0.01 were considered to be significant.

SMILES | insulin secretion of BRIN-BD11 cells
COc1c(-c2ccc(O)cc2)oc2c3c(cc(O)c2c1=O)OC(C)C3(C)C (stereo not shown) [ugonin C, 5-hydroxy-2-(4-hydroxyphenyl)-3-methoxy-8,9,9-trimethyl-8,9-dihydro-4H-furo[2,3-h]chromen-4-one] | significantly enhance
C=C1CCCC(C)(C)[C@H]1Cc1c(O)cc2oc(-c3ccc(O)c(O)c3)cc(=O)c2c1O [ugonin J, (R)-2-(3,4-dihydroxyphenyl)-6-((2,2-dimethyl-6-methylenecyclohexyl)methyl)-5,7-dihydroxy-4H-chromen-4-one] | significantly enhance
CC1Oc2cc3oc(-c4ccc(O)c(O)c4)cc(=O)c3c(O)c2C1(C)C (stereo not shown) [ugonin T, 7-(3,4-dihydroxyphenyl)-4-hydroxy-2,3,3-trimethyl-2,3-dihydro-5H-furo[3,2-g]chromen-5-one] | significantly enhance
C=C1CCCC(C)(C)[C@H]1Cc1c(OC)cc2oc(-c3ccc(O)c(O)c3)cc(=O)c2c1O [ugonin K, (R)-2-(3,4-dihydroxyphenyl)-6-((2,2-dimethyl-6-methylenecyclohexyl)methyl)-5-hydroxy-7-methoxy-4H-chromen-4-one] | significantly enhance
CC1=CCCC(C)(C)C1Cc1c(O)c(O)cc2oc3c(=O)c4c(O)cc(O)cc4oc3c12 (stereo not shown) [ugonin M, 1,3,7,8-tetrahydroxy-6-((2,6,6-trimethylcyclohex-2-en-1-yl)methyl)-11H-benzofuro[3,2-b]chromen-11-one] | significantly enhance
CC1Oc2cc(O)c3c(=O)c(O)c(-c4ccc(O)cc4)oc3c2C1(C)C (stereo not shown) [ugonin F, 3,5-dihydroxy-2-(4-hydroxyphenyl)-8,9,9-trimethyl-8,9-dihydro-4H-furo[2,3-h]chromen-4-one] | significantly enhance
